Measurements taken from the METLIN SMRT retention time set (Domingo-Almenara et al. 2019).

Experiment: gradient 5% acetonitrile 3 min, to 50% in 2 min, to 85% in 15 min, held 3 min, 100 µL/min
Conditions: column: Zorbax Extend-C18 2.1 x 50 mm; eluents: water / acetonitrile, 0.1% formic acid
In short: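 Pure standards were analyzed in mixtures of ~100 molecules using HPLC coupled to a quadrupole time-of-flight mass spectrometer, in both positive and negative ionization mode. Separation used a Zorbax Extend-C18 column (2.1 × 50 mm, 1.8 μm) at 100 μL/min, with water and acetonitrile each containing 0.1% formic acid. Dead and dwell volumes were 40 μL and 900 μL, and data were collected over 3 months. Retention time was read from computationally picked adduct peaks, each inspected manually.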

Row | Compound | RP-LC retention time [s]
1 | COC(=O)CC1=CC(SCC(=O)N2CCC(C)CC2)=Nc2ccccc2N1 | 1000
2 | O=S(=O)(NC1CCCCCC1)c1ccc2c(c1)-c1oncc1CO2 | 1000
3 | CCCn1c(CN2CCOCC2)nc2cc(NC(=O)CC(C)C)ccc21 | 633
4 | c1ccc(COCCc2noc(C3CN(Cc4ccccc4)C3)n2)cc1 | 693
5 | CCCCOC(=O)CSc1nnc(-c2ccc(Br)cc2)o1 | 1190
6 | COc1ccc(-c2noc(C3CCCN3C(=O)NC3CCCC3)n2)cc1 (configuration not stated) | 881
7 | Nc1nc(F)nc2c1ncn2[C@@H]1O[C@H](CO)[C@@H](O)[C@@H]1O | 573
8 | CCn1nccc1C(=O)N1CCN(c2cc(-c3ccccc3)[nH]n2)CC1 | 694
9 | O=C(NCc1ccco1)C1CCCN(C(=O)NC2CC2)C1 (configuration not stated) | 604
10 | O=C(CCc1nnn2c1CN(C(=O)NC1CCCC1)CC2)N1CCOCC1 | 615
11 | O=C(NC1CCN(c2cc(-c3cccs3)[nH]n2)C1)c1ccc2nc[nH]c2c1 (configuration not stated) | 564
12 | O=C(C1CCN(S(=O)(=O)N2CCOCC2)CC1)N1CCC(c2nc(C3CCOCC3)no2)C1 (configuration not stated) | 656
13 | O=C(NCCc1c[nH]c2ccccc12)c1cc2cccnc2n(Cc2ccc(F)cc2)c1=O | 1090
14 | CCc1nc(-c2csc(S(=O)(=O)N3CCCC(C(=O)NCc4cc(C)ccc4C)C3)c2)no1 (configuration not stated) | 1080
15 | CCOC(=O)C1CCN(C(=O)C2CCCN(c3nccc(C)n3)C2)CC1 (configuration not stated) | 698
16 | CCC(=O)N1C[C@@H]2C(=O)N(CCc3ccccc3)C(=O)[C@@H]2C1 | 702
17 | CCCn1cc(CCNS(=O)(=O)c2ccc(Cl)s2)c2cccnc21 | 899
18 | Cc1ccc(CNC(=O)C2(C)Oc3cccnc3N(C)C2=O)o1 (configuration not stated) | 740
19 | CCn1ccc(C(=O)N2CCC(Nc3ncnc4c3CCC4)CC2)n1 | 553
20 | Cc1sc(-c2cc(C(F)(F)F)on2)cc1S(=O)(=O)N1CCCc2ccccc21 | 1300
21 | Cc1ccc2c(C(=O)N3CCN(CC(C)C)CC3)cc(NC(=O)C3CCC3)cc2n1 | 562
22 | CCCc1cc(N2CCN(C(=O)c3ccc4c(c3)OCO4)CC2)nc2nnc(CC)n12 | 650
23 | O=C(C1CCCN(c2cnc3nccnc3c2)C1)N1CCC(Cc2ccccc2)CC1 (configuration not stated) | 892
24 | CCOCCCNS(=O)(=O)c1cc(-c2ccno2)cs1 | 796
25 | COc1ccc(NC(=O)C2CCc3sc(C(=O)N4CCCC4)cc3C2)cc1OC (configuration not stated) | 680
26 | COc1ccc(S(=O)(=O)N2CCCC(C(=O)NCc3cccnc3)C2)cc1OC (configuration not stated) | 591
27 | CN(CC1(C)CCOCC1)S(=O)(=O)c1ccc(F)c(F)c1 | 910
28 | O=C(Nc1nc(CC(=O)N2CCN(C(=O)C3CCCO3)CC2)cs1)c1ccsc1 (configuration not stated) | 606
29 | CCN(CC)CCNC(=O)C1CCCN(c2ncc(-c3cccc(F)c3)cn2)C1 (configuration not stated) | 688

More lines, now with the values ahead:

Row | RP-LC retention time [s] | Compound
30 | 717 | Cc1ccc2nc(-c3ccccc3)c(Nc3ccc4c(c3)OCO4)n2c1
31 | 694 | COc1ccc2[nH]cc(CCNC(=O)c3cnn(-c4ccc(Cl)cc4)c3C3CCNCC3)c2c1
32 | 606 | COc1ccc(CN(C)Cc2cc(=O)n3cc(Cl)ccc3n2)cc1OC
33 | 685 | COc1ccc(-c2cc(N3CCC(NC(=O)c4ccc(C#N)cc4)C3)n[nH]2)cc1 (configuration not stated)
34 | 871 | CC1(C)C(=O)N(CC(=O)Nc2ccc(F)cc2F)c2ccccc21
35 | 689 | CCCCCNC(=O)c1ccc2nc(CCc3ccc(NC(=O)C(C)C)cc3)[nH]c2c1
36 | 619 | O=C(O)CCNc1c(-c2ccc(F)cc2)nc2cnccn12
37 | 668 | O=C(NCc1c(-c2ccc(Cl)cc2)nc2n1CCS2)c1ccco1
38 | 617 | O=C(Nc1nnc(-c2cccs2)o1)c1cccc(N2C(=O)CCC2=O)c1
39 | 1150 | Cc1ccc(C)c(-c2csc(Nc3ccc(F)cn3)n2)c1
40 | 805 | COc1ccccc1CNc1nccc(-n2ccc(C)n2)n1
41 | 823 | COCCCNC(=O)c1cc2c(n(-c3ccc(C(F)(F)F)cc3)c1=O)CCCC2=O
42 | 741 | O=C(NCc1nc(-c2cccc(-c3ccn[nH]3)c2)no1)c1ccccc1
43 | 1120 | Cc1cc(=O)n(CC(=O)Nc2ccc(Cl)cc2)c(-c2ccc(F)cc2)n1
44 | 689 | COc1ccc(-n2c(CN3CCN(C(=O)Nc4cc(F)ccc4F)CC3)nc3cccnc32)cc1
45 | 1120 | Cc1ccc2c(c1)OCC(=O)N2Cc1nc(-c2ccccc2C)no1
46 | 948 | Cc1ccc(NC(=O)C2CCN(S(=O)(=O)c3ccc4c(c3)CCCC(=O)N4)CC2)cc1
47 | 978 | Cc1cccc(C)c1-n1ccn(Cc2nc(-c3ccc(Cl)cc3)no2)c(=O)c1=O
48 | 864 | CCc1nnc(-c2ccc3ccn(CC(=O)N4CCN(c5cccc(OC)c5)CC4)c3c2)o1

Row | RP-LC retention time [s] | Compound
49 | 1020 | Cc1ccc(CNC(=O)C2(C)CCCN(C(=O)Nc3ccccc3Br)C2)cc1 (configuration not stated)
50 | 578 | COc1cccc(S(=O)(=O)Nc2ccc(C(=O)Nc3ccncc3)cc2)c1
51 | 1010 | CCn1nccc1-c1cccc(-c2noc(C3CC(=O)N(c4ccc(C)cc4)C3)n2)c1 (configuration not stated)
52 | 803 | CC(=O)Nc1cc(-c2nc(-c3ccc4oc(C)nc4c3)no2)ccc1C
53 | 1070 | CCN(C(=O)CC(=O)OC)c1nc(-c2ccc(C)cc2)cs1
54 | 620 | Cc1cc2nc(CN3CCN(Cc4ccccc4)CC3)c(=O)[nH]c2cc1C
55 | 961 | Cc1cc(C)n(-c2nc(CC(=O)Nc3ccccc3F)cs2)n1
56 | 898 | COC(=O)c1ccccc1NC(=O)Cn1c(=O)c(CCC(=O)NC2CCCC2)nc2ccccc21
57 | 912 | Cc1ccc(-n2c(=O)c3c(cc(C)n3C)n(CC(=O)Nc3c(C)cccc3C)c2=O)cc1
58 | 1230 | CCOC(=O)c1noc2nc(C)nc(Nc3ccc(C)c(F)c3)c12
59 | 1180 | Cc1ccc(F)cc1NC(=O)Cn1nc(N2CCC(C)CC2)c2ccccc2c1=O
60 | 1130 | Cn1nccc1-c1cccc(-c2noc(Cc3ccc(Cl)cc3)n2)c1
61 | 1290 | Cc1sc(NC(=O)CCC2CCCCC2)nc1-c1ccc2c(c1)N(C)C(=O)CO2
62 | 757 | CSc1ccc(CNC(=O)Cc2c(C(=O)O)c(C)cn2C)cc1
63 | 833 | CCCn1cc(CCNC(=O)c2cccc(Br)c2)c2cccnc21
64 | 680 | Cc1cc(SCC(=O)Nc2ccc3c(c2)OCO3)nc(-c2cnccn2)n1
65 | 985 | CCCCn1cnc2c(-c3ccccc3)cn(CC(=O)NC(C)CC)c2c1=O (configuration not stated)
66 | 752 | CSc1cccc(NC(=O)c2c[nH]c3ncccc23)c1
67 | 797 | O=C(NCc1ccc(Cl)cc1)C1CCN(C(=O)c2cc3ccsc3[nH]2)CC1
